Calls of active or inactive are those of the source.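 Rule for the calls: active = TRPV1 channel activation above 50%; inactive = activation of 50% or less.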

Sequence of Transient receptor potential cation channel subfamily V member 1 (Homo sapiens) (Q8NER1 whole entry, looked up): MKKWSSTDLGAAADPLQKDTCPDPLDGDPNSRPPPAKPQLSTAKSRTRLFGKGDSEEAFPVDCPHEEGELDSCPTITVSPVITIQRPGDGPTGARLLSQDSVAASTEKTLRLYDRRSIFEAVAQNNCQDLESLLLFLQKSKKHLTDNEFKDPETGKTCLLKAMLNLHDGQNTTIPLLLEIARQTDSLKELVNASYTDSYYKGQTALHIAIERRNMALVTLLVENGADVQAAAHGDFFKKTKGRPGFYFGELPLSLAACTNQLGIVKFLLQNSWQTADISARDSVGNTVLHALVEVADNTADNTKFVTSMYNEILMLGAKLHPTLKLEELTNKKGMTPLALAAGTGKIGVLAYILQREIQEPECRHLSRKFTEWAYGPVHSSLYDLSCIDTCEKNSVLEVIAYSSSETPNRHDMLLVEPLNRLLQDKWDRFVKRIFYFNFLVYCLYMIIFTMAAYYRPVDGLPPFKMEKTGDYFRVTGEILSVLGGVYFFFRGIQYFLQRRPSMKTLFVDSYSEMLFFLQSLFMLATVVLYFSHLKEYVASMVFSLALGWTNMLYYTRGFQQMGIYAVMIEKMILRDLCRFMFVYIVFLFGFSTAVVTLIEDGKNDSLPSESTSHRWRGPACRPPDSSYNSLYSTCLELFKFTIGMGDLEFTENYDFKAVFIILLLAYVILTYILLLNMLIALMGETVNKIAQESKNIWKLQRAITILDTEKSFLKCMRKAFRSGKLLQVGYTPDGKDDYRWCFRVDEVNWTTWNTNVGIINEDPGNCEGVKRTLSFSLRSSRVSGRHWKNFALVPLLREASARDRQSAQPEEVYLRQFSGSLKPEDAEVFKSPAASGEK

This experiment addresses Transient receptor potential cation channel subfamily V member 1 (Homo sapiens) (UniProt Q8NER1). Kind of experiment: activation of human TRPV1 currents – automated patch clamp, HEK293 cells, confirmation (AID 588633). Conditions: TRPV1-HEK293, automated patch clamp current; at 10 µM; active compounds read high.
Turning to `CCCn1c(SC(C)C(=O)N2CCOCC2)nc2ccc(Br)cc2c1=O` (centres undefined), the activation is 253%.
Next, `COC(=O)c1[nH]c2ccc(C)cc2c1NC(=O)CN1CCCC(C)(C)C1`: 61.2%; `CS(=O)(=O)N1CCc2cc(C(=O)Nc3ccc(Br)cc3)ccc21`: 5.79% (inactive).
Take `CC(C)c1ccc(/C=C/C(=O)N2CCOCC2)cc1`: the activation was 242%.
For the compound `Cc1ccc(Cn2nc(C(=O)Nc3ccc(Br)cc3)cc2C)cc1`, the activation is 26.9% (inactive).
Regarding `CC(C)CCSc1nc(N2CCOCC2)c2c(c1C#N)CC(C)(C)OC2`, the activation was 93.7%.
Next, `COc1ccc(Nc2nc(C)nc3c2oc2ccccc23)cc1`: 419%; `Cc1cc2oc(C(=O)Nc3cccnc3)c(C)c2cc1C`: 6.35% (inactive); `CC(C)(C)c1cc(CCC(=O)NCc2ccncc2)cc(C(C)(C)C)c1O`: 265%.
For `CC(C)(C)c1ccc2c(c1)OC(C(=O)N/N=C\c1ccncc1)CO2` (centres undefined) the value was 182%; for `CC(C)(C)OC(=O)CNC(=O)c1[nH]cnc1C(=O)N[C@@H](Cc1ccccc1)C(=O)OC(C)(C)C`, 28.7% (inactive); for `CC(C)(C)c1ccc(NC(=O)N2CCCN(c3ccc([N+](=O)[O-])cn3)CC2)cc1`, 287%.
Next, `Cc1ccc(C2=NN(C)c3nc4ccccc4n3C2)cc1`: 105%.
On to `O=C(/C=C\c1cn(-c2ccccc2)nc1-c1ccc2c(c1)OCCO2)N1CCOCC1`, for which the activation was 226%.
Take `O=C(Nc1ccc(C(F)(F)F)cc1)c1ccc2ncsc2c1`: the activation was 145%.
Next, `CC(=O)c1ccc(N2CCN(C(=O)Nc3ccc(C(C)C)cc3)CC2)cc1`: 316%; `Cc1ccc(NC(=O)c2cc3c(s2)CCCC3)cc1`: 402%.
Turning to `CCC(C)Sc1cccc(-c2nc3ccc(Cl)cn3c2NCc2ccccc2)c1` (centres undefined), the activation was 10.9% (inactive).
With `COCCNC(=O)CCc1c(C)nc2c(c(C)nn2-c2ccc(C)cc2)c1C`, the activation was 197%.
Regarding `CC(C)(C)c1ccc(/C=C/C(=O)Nc2cccnc2)cc1`, the activation is 131%.
Consider `CCc1ccc2oc(C(=O)Nc3cccnc3)c(C)c2c1`, for which the activation is 4.84% (inactive).
Regarding `O=C(NCCCc1ccccc1)c1ccc(F)cc1`, the activation is -2.6% (inactive).
For `CC(C)(C)c1ccc(C(=O)Nc2ccc(S(N)(=O)=O)cc2)cc1` the value was 378%.
Take `Cc1cc(C(=O)N/N=C/c2cccc([N+](=O)[O-])c2)c(C)n1-c1ccccc1`: the activation is 76.2%.
Regarding `O=C(C1=NOC(CNc2ncc(C(F)(F)F)cc2Cl)C1)N1CCOCC1` (centres undefined), the activation is 157%.
As for `CCC(C)(C)c1ccc(OCC(=O)Nc2ccncc2)cc1`, the activation was 440%.
In the case of `Cc1cccn2c(=O)c3cc(C(=O)NCC4CCCO4)c(=N)n(Cc4ccc(F)cc4)c3nc12` (centres undefined), the activation was 229%.
With `CC(C)(C)c1ccc(C(=O)Nc2ccc3c(c2)C(=O)NC3=O)cc1`, the activation is 3.59% (inactive).
Next, `CC(=O)c1ccc(N2CCN(C(=O)Nc3ccc(Cl)cc3)CC2)cc1`: 6.07% (inactive); `CC(=O)c1ccc(NC(=O)N2CCN(c3ccc(C)cc3)C(C)C2)cc1` (centres undefined): 155%; `COc1ccc(CNC(=S)NCc2ccc(Cl)cc2)cc1OC`: 272%.
For the compound `CCOC(=O)[C@H]1[C@H]2COc3ccc(Cl)cc3[C@@H]2N2C(=O)c3ccc(C)cc3NC(=O)[C@@]12C`, the activation was 34% (inactive).
For `Cc1nc(Nc2cccc(Cl)c2)c2oc3ccccc3c2n1`, the activation is 34.8% (inactive).
`COc1ccc(Nc2ncnc3c2oc2ccccc23)cc1`: the activation was 48.6% (inactive).
Next, `Cc1cc(C(=O)NCCC2=CCCCC2)ccc1[N+](=O)[O-]`: 369%; `O=C(c1cc(-c2ccc(Cl)cc2Cl)on1)N1CCOCC1`: 334%.
For `CCN(CC)S(=O)(=O)c1ccc(/C=C/C(=O)Nc2ccc(N3CCOCC3)cc2)cc1` the value was 27.1% (inactive); for `Cc1ccc(Nc2nc(C)nc3c2oc2ccccc23)cc1`, 317%; for `O=C(NCc1ccccc1)[C@@H]1C[C@H]1[C@@H](NP(=O)(c1ccccc1)c1ccccc1)c1ccccc1`, 97.1%.
Consider `CCCSc1ccc(-c2nn(-c3ccccc3)cc2/C=C(/C#N)C(=O)N2CCOCC2)cc1`, for which the activation is 23.7% (inactive).
Consider `CCc1ccc(/C=C2\SC(N3CCOCC3)=NC2=O)cc1`, for which the activation is 199%.
For `Oc1ccccc1N=Cc1c(O)ccc2ccccc12` the value was 10.6% (inactive); for `O=C(Nc1ccccc1)c1cc(-c2ccccc2Cl)no1`, 40.5% (inactive); for `O=C(C1=C[C@@H](c2ccccc2)C[C@@H](OCc2ccc(CO)cc2)O1)N1CCCCCCC1`, 323%.
For `O=C(NCc1cccnc1)C1CCC(c2ccc(Cl)cc2)CC1` (centres undefined) the value was 196%.
Turning to `COc1ccc(Cn2nc(-c3ccccc3)c(N3CCCCC3)cc2=O)cc1`, the activation was 143%.
Regarding `COc1ccc(C(=O)Nc2ccc(C3=NNC(=O)CC3C)cc2NC(=O)c2ccc(OC)cc2)cc1` (centres undefined), the activation was 51.6%.
With `CC(C)c1ccc(NC2CCCN(C(=O)c3ccco3)C2)cc1` (centres undefined), the activation is 387%.
Next, `O=C(Nc1cccnc1)c1ccc(-c2ccccc2)cc1`: 67%; `CC1CCN(C(=O)/C=C/c2ccc(C(C)(C)C)cc2)CC1`: 12.5% (inactive).
For `CCc1ccc(NC(=O)Nc2ccc3c(c2)N(C)C(=O)CS3)cc1` the value was 28.7% (inactive); for `CCCCCC1CCC(C(=O)N2CCOCC2)CC1` (centres undefined), 57%; for `O=C(CCc1ccccc1)N1CCCC(Nc2ccc(F)cc2)C1` (centres undefined), 585%.
Take `Cc1cc2c(NC(=O)Nc3ccc(C(C)(C)C)cc3)cccc2nn1`: the activation was 200%.
Next, `CC(OC(=O)CC1CCCCC1)C(=O)Nc1ccc(F)cc1` (centres undefined): 77.3%.
For `COc1ccc(NC2c3ccccc3C(=O)N2Cc2ccc3c(c2)OCO3)cc1` (centres undefined) the value was 330%.
As to `CC1CCCN(c2ccc(C(=O)Nc3cccnc3)cc2[N+](=O)[O-])C1` (centres undefined), the activation was 467%.
In the case of `CC(C)c1ccc(NCCC(=O)c2cccs2)cc1`, the activation is 57.6%.
With `CCc1nc(Nc2ccc3c(c2)OCCO3)c2oc3ccccc3c2n1`, the activation is 111%.
On to `CC(C)(C)c1ccc(/C=N/OCC(=O)NCc2ccc(F)cc2)cc1`, for which the activation is 9.95% (inactive).
Next, `CCN(CCNC(=O)c1ccc(C#N)cc1)c1cccc(C)c1`: 427%; `CC(C)c1ccc(CNNC(=O)c2ccccc2)cc1`: 156%.
For `CC(C)(C)c1ccc(OCCCC(=O)N2CCOCC2)cc1` the value was 304%; for `Cc1ccc(C(=O)Nc2ccc(SC(F)F)cc2)s1`, 54.6%; for `CC(=O)Nc1ccc(N=Cc2c(O)ccc3ccccc23)cc1`, 30% (inactive).
Next, `Cc1ccc(Nc2ncnc3c2oc2ccccc23)cc1`: 200%; `CCCCCCC1CCC(C(=O)N2CCOCC2)CC1` (centres undefined): 17.2% (inactive).
For `O=C(Nc1cccc([N+](=O)[O-])c1)c1ccc(-c2ccccc2)cc1`, the activation was 5.26% (inactive).
Take `CC(C)(C)c1ccc(OCCNC(=O)Cc2ccc(F)cc2)cc1`: the activation is 39.6% (inactive).
Next, `CCCCCCCCC(=O)NCc1ccc(O)c(OC)c1`: 43.2% (inactive); `Cc1ccc(S(=O)(=O)Cc2ccc(C(=O)NCCc3ccccc3)o2)cc1`: 50.9%; `CCCOc1ccc(/C=C/C(=O)N2CCOCC2)cc1`: 338%.
Next, `Cc1ccc(N2CCN(C(=O)N3CCOCC3)CC2)c(C)c1`: 33.5% (inactive).
For `O=C(/C=C\c1cn(-c2ccccc2)nc1-c1cccs1)N1CCOCC1` the value was 272%.
On to `CCC(C)Sc1ccc(-c2nc3ccc(C)cn3c2NCc2ccccc2)cc1OC` (centres undefined), for which the activation is 27.4% (inactive).
For `CC(C)(C)c1ccc(/C=C/C(=O)N2CCCCC2)cc1` the value was 420%.
Next, `CCC(C)Sc1cccc(-c2nc3cc(C)ccn3c2NCc2ccccc2)c1` (centres undefined): 63.1%.
Next, `COc1cccc(/C=N/n2c(SC)nnc2-c2ccccc2)c1O`: 173%.
Turning to `COc1ccc(NC(=O)CCCSc2nc(-c3ccco3)cc(C(F)(F)F)n2)cc1OC`, the activation is 406%.
For `Cc1ncsc1CCC(=O)N1CCCC(Nc2ccc(C(C)C)cc2)C1` (centres undefined) the value was 335%; for `CCc1nc(Nc2ccccc2)c2oc3ccccc3c2n1`, 128%.
For `Cc1ccc(/C=N/Nc2nc(N3CCCCC3)nc(N3CCCCC3)n2)o1` the value was 148%; for `CC(C)(C)c1ccc(NC(=O)c2ccsc2)cc1`, 199%.
`CC(C)(C)c1ccc(/C=C/C(=O)Nc2ccncc2)cc1`: the activation is 69.2%.
Next, `O=C(COC(=O)C12CC3CC(CC(C3)C1)C2)Nc1ccc2[nH]c(=O)[nH]c2c1`: 34.9% (inactive); `O=C(Nc1ccc(N2CCCCCC2)cc1)c1cccc(S(=O)(=O)N2CCOCC2)c1`: 197%; `CCN(c1ccc(NC(=O)c2ccc(Cl)nc2)cc1)C(C)C`: 291%.
With `NS(=O)(=O)c1ccc(NC(=O)c2ccc3c(c2)CCCC3)cc1`, the activation is 23.2% (inactive).
Next, `CC(C)c1ccc(NC(=O)N2CCC(c3nc4ccccc4o3)CC2)cc1`: 135%; `CCOC(=O)c1sc(-c2ccccc2)cc1NC(=O)Nc1ccccc1`: 43.2% (inactive).
Next, `CC(=O)c1ccc(Nc2ncnc3c2oc2ccccc23)cc1`: 69.7%; `Cc1cnc(NC(=O)c2cc3c(s2)CCCC3)s1`: 32.4% (inactive).
Next, `Cc1ccc2nc(-c3ccccn3)cc(C(=O)Nc3ccc4c(c3)OCO4)c2c1`: 1.55% (inactive); `Cc1nc(Nc2cccc(F)c2)c2oc3ccccc3c2n1`: 58.3%.

Source of the values: PubChem BioAssay AID588633 (Johns Hopkins Ion Channel Center, 2011).
